Measurements as given in patent US20260285853A1, “COMPOUNDS AND METHODS FOR MODULATING SPLICING” (REMIX THERAPEUTICS INC., priority 2023, published 2026).

Tests used:
Type in all cases: cell-based
MYB mRNA [1] = assay: Splicing RT-qPCR assay (THP), Table 2A
HTT mRNA [2] = assay: Splicing RT-qPCR assay, canonical (CJ) and alternative (AJ) junction mRNA, K562 cells; conditions: Homo sapiens, K562.3 cells, 24 hours; for AC50: read-out: HTT AJ (AC50, increase in AJ mRNA); for IC50: read-out: HTT CJ (IC50, decrease in CJ mRNA)
Method in brief: (§1)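 K562 cells were treated for 24 h at 37 °C with an 11-point 3-fold dilution series (top 10 uM final, DMSO ≤0.25%), then lysed for one-step RT-qPCR of canonical and alternative junctions. ΔΔCt was taken against GAPDH or GUSB and DMSO, converted to RQ by 2^(−ΔΔCt), then to % response.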

MYB mRNA [3] = assay: as above; conditions: Homo sapiens, K562.3 cells, 24 hours; for AC50: read-out: MYB AJ (AC50, increase in AJ mRNA); for IC50: read-out: MYB CJ (IC50, decrease in CJ mRNA)
Method in brief: as §1

HTT mRNA [4] = assay: Splicing RT-qPCR assay (THP), Table 2A
[5] = Table 2A (THP), AJ mRNA increase, read-out: MYB AJ (increase in alternative junction mRNA, AC50)
[6] = Table 2A (THP), CJ mRNA decrease, read-out: MYB CJ (decrease in canonical junction mRNA, IC50)
[7] = Table 2A (THP), AJ mRNA increase, read-out: HTT AJ (increase in alternative junction mRNA, AC50)
[8] = Table 2A (THP), CJ mRNA decrease, read-out: HTT CJ (decrease in canonical junction mRNA, IC50)
[9] = Table 2A, THP, MYB alternative junction (AJ) mRNA, read-out: MYB AJ (AC50, increase in alternative junction mRNA)
[10] = Table 2A, THP, MYB canonical junction (CJ) mRNA, read-out: MYB CJ (IC50, decrease in canonical junction mRNA)
[11] = Table 2A, THP, HTT alternative junction (AJ) mRNA, read-out: HTT AJ (AC50, increase in alternative junction mRNA)
[12] = Table 2A, THP, HTT canonical junction (CJ) mRNA, read-out: HTT CJ (IC50, decrease in canonical junction mRNA)

Compound	AC50 (MYB mRNA [1]; [5]) [nM]	IC50 (MYB mRNA [1]; [6]) [nM]	AC50 (HTT mRNA [2]) [µM]	IC50 (HTT mRNA [2]) [µM]	AC50 (MYB mRNA [3]) [nM]	IC50 (MYB mRNA [3]) [nM]	AC50 (HTT mRNA [4]; [7]) [µM]	IC50 (HTT mRNA [4]; [8]) [µM]	AC50 (MYB mRNA [1]; [9]) [nM]	IC50 (MYB mRNA [1]; [10]) [nM]	AC50 (HTT mRNA [4]; [11]) [µM]	IC50 (HTT mRNA [4]; [12]) [µM]
Cc1cn2cc(NC(=O)c3ccc(N4C[C@@H](C)N[C@@H](C)C4)c4nn(C)nc34)cc(F)c2n1 [Compound 252, 7-((3S,5R)-3,5-dimethyl-piperazin-1-yl)-N-(8-fluoro-2-methyl-imidazo[1,2-a]pyridin-6-yl)-2-methyl-2H-benzo[d][1,2,3]triazole-4-carboxamide 2,2,2-trifluoroacetate]	100 to 1000	100 to 1000	0.1 to 1	0.1 to 1	100 to 1000	100 to 1000	1 to 10	0.1 to 1				
Cc1cn2cc(NC(=O)c3ccc(N4CCNCC4=O)c4[nH]cnc34)cc(F)c2n1 [Compound 257, N-(8-fluoro-2-methyl-imidazo[1,2-a]-pyridin-6-yl)-7-(2-oxopiperazin-1-yl)-1H-benzimidazole-4-carboxamide]	> 10000	> 10000	> 10	> 10	> 10000	> 10000	> 10	> 10				
Cc1cn2cc(NC(=O)c3ccc(N4C[C@@H](C)N[C@@H](C)C4)c4nnn(C)c34)cc(F)c2n1 [Compound 261, 7-[(3R,5S)-3,5-dimethylpiperazin-1-yl]-N-(8-fluoro-2-methyl-imidazo[1,2-a]pyridin-6-yl)-3-methyl-benzotriazole-4-carboxamide]	> 10000	> 10000	> 10	> 10	> 10000	> 10000	> 10	> 10				
CO[C@H]1C[C@H](N[C@H]2CCN(c3ccc(C(=O)Nc4cc(F)c5nc(C)cn5c4)c4nn(C)cc34)C2)C1 [Compound 275, N-(8-fluoro-2-methylimidazo[1,2-a]pyridin-6-yl)-4-((S)-3-(((1r,3S)-3-methoxycyclobutyl)amino)pyrrolidin-1-yl)-2-methyl-2H-indazole-7-carboxamide]	100 to 1000	100 to 1000	1 to 10	1 to 10	100 to 1000	100 to 1000	1 to 10	1 to 10				
CO[C@H]1C[C@@H](N[C@H]2CCN(c3ccc(C(=O)Nc4cc(F)c5nc(C)cn5c4)c4nn(C)cc34)C2)C1 [Compound 277, N-(8-fluoro-2-methylimidazo[1,2-a]pyridin-6-yl)-4-((S)-3-(((1s,3R)-3-methoxy-cyclobutyl)amino)pyrrolidin-1-yl)-2-methyl-2H-indazole-7-carboxamide]	100 to 1000	100 to 1000	< 0.1	1 to 10	100 to 1000	100 to 1000	1 to 10	1 to 10				
Cc1cn2cc(NS(=O)(=O)c3ccc(N4C[C@@H](C)N[C@@H](C)C4)c4cn(C)nc34)cc(F)c2n1 [Compound 279]	> 10000	> 10000	> 10	> 10	> 10000	> 10000	> 10	> 10				
CCNC1CCN(c2ccc(C(=O)Nc3cc(F)c4nc(COC)cn4c3)c3nn(C)cc23)CC1 [Compound 284, 4-[4-(ethylamino)-1-piperidyl]-N-[8-fluoro-2-(methoxymethyl)imidazo[1,2-a]pyridin-6-yl]-2-methyl-indazole-7-carboxamide]	1000 to 10000	> 10000	> 10	1 to 10	1000 to 10000	1000 to 10000	> 10	> 10				
COCCN[C@@H]1CCN(c2cc(O)c(C(=O)Nc3cc(F)c4nc(C)cn4c3)c3nn(C)cc23)C1 [Compound 285, N-(8-fluoro-2-methyl-imidazo[1,2-a]pyridin-6-yl)-6-hydroxy-4-[(3R)-3-(2-methoxyethylamino)pyrrolidin-1-yl]-2-methyl-indazole-7-carboxamide]	< 100	< 100	> 10	> 10	< 100	< 100	> 10	> 10				
Cc1cn2cc(NC(=O)c3c(O)cc(N4CC[C@@H](NC5CC5)C4)c4cn(C)nc34)cc(F)c2n1 [Compound 288, 4-[(3R)-3-(cyclopropylamino)-pyr-rolidin-1-yl]-N-(8-fluoro-2-methyl-imidazo[1,2-a]pyridin-6-yl)-6-hydroxy-2-methyl-indazole-7-carboxamide]	< 100	< 100	> 10	> 10	< 100	< 100	> 10	> 10				
Cn1cc2cc(NC(=O)c3c(O)cc(N4CC[C@@H](NC5CC5)C4)c4cn(C)nc34)cc(F)c2n1 [Compound 291, 4-[(3R)-3-(cyclopropylamino)pyrrolidin-1-yl]-N-(7-fluoro-2-methyl-indazol-5-yl)-6-hydroxy-2-methyl-indazole-7-carboxamide]	< 100	< 100	1 to 10	1 to 10	< 100	< 100	1 to 10	> 10				
CCN[C@@H]1CCN(c2cc(O)c(C(=O)Nc3cc(F)c4nn(C)cc4c3)c3nn(C)cc23)C1 [Compound 294, 4-[(3R)-3-(ethylamino)-pyrrolidin-1-yl]-N-(7-fluoro-2-methyl-indazol-5-yl)-6-hydroxy-2-methyl-indazole-7-carboxamide]	< 100	< 100	1 to 10	0.1 to 1	< 100	< 100	1 to 10	1 to 10				
Cc1cn2cc(NC(=O)c3ccc(N4CCC(NC5CC5)CC4)c4cn(C)nc34)nc2c(C)n1 [Compound 297, 4-[4-(cyclopropylamino)-1-piperidyl]-N-(6,8-dimethylimidazo[1,2-a]pyrazin-2-yl)-2-methyl-indazole-7-carboxamide]	100 to 1000	1000 to 10000	> 10	> 10	100 to 1000	100 to 1000	> 10	> 10				
COc1c(NC(=O)c2ncc(N3CCNCC3)c3cn[nH]c23)cn2cc(C)nc2c1F [Compound 606, N-(8-fluoro-7-methoxy-2-methyl-imidazo[1,2-a]pyridin-6-yl)-4-piperazin-1-yl-1H-pyrazolo[3,4-c]pyridine-7-carboxamide]			> 10	> 10	> 10000	> 10000			1000 to 10000	1000 to 10000	> 10	> 10
COc1c(NC(=O)c2c(F)cc(N3CCNCC3)c3cn[nH]c23)cn2cc(C)nc2c1F [Compound 607, 6-fluoro-N-(8-fluoro-7-methoxy-2-methyl-imidazo[1,2-a]pyridin-6-yl)-4-piperazin-1-yl-1H-indazole-7-carboxamide]			1 to 10	0.1 to 1	< 100	< 100			< 100	< 100	1 to 10	0.1 to 1
